In patent publication US6974870B2, “Substituted 3-amino-thieno [2,3-b]pyridine-2-carboxylic acid amide compounds and processes for preparing and their uses” (Boehringer Ingelheim Phamaceuticals, Inc., priority 2002, dated 2005) one finds IC50 data, which are given here for 23 compounds.

Bounds are passed on as bounds.

The target in one assay is T1, human IKKβ (Homo sapiens, UniProt O14920).
T1 construct: FLAG (N)
T1 sequence (O14920 1-756): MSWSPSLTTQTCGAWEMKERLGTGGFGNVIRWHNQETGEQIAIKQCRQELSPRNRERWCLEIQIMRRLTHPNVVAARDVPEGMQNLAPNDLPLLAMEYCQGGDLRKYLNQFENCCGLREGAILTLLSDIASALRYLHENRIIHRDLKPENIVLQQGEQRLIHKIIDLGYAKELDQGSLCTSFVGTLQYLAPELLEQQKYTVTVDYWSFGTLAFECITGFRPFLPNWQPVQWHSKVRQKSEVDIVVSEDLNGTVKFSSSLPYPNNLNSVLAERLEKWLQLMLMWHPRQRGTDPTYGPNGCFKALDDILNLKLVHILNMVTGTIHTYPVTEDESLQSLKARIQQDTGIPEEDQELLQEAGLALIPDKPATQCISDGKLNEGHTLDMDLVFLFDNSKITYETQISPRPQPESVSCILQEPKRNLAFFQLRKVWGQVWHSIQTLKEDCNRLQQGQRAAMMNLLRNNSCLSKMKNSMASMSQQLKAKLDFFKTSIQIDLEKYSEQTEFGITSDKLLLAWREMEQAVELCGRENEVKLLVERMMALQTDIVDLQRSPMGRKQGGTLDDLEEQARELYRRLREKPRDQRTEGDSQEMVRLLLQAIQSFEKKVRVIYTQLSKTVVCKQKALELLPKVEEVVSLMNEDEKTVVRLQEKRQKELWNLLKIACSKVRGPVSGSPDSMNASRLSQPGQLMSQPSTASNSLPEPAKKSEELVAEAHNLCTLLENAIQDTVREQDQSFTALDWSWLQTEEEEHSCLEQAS
In words: IKKβ kinase inhibition assay (phosphorylation of IκBα substrate, 33P-ATP). The class given is biochemical. Particulars: flag-tagged human IKKβ 0.9 μg/ml, GST-IκBα (1-54) 53 μg/ml, 250 nM ATP, 1 hour at 25° C. Here is the method:
(§1) The inhibition of IKKα and IKKβ by the compounds of the present invention was determined with the following assay that measures the phosphorylation of the IκBα substrate by the respective kinases. The enzymes used in the assay were N-terminally flag-tagged versions of the human IKKβ or IKKα and the substrate was a GST fusion protein with IκBα (amino acids 1-54).
(§2) The reaction mixtures (60 μl) contained 20 mM HEPES pH 7.5, 10 mM MgCl2, 2 mM MnCl2, 100 mM NaCl, 100 μM Na3VO4, 20 mM β-glycerophosphate, 1 mM DTT, 2% DMSO, 250 nM ATP, 0.4 nM [^33P]ATP (specific activity, 3000 Ci/mmol), IκBα substrate, IKK enzyme and test compound. The reaction mixtures contained either 3.6 μg/ml IKKα and 245 μg/ml IκBα or 0.9 μg/ml IKKβ and 53 μg/ml IκBα.
(§3) Reactions were initiated by adding a solution of IκBα substrate and ATP to polypropylene plates containing IKK enzyme that was pre-incubated for 5 minutes with test compound. Then the reaction mixtures were incubated for 1 hour at 25° C., placed on ice and quenched by the addition of 150 μl 10% trichloroacetic acid and 5% disodium pyrophosphate. After mixing, the entire contents of the quenched reaction mixtures were transferred to a pre-wetted Packard UniFilter filtration plate, aspirated and washed 6 times with 250 μl of ddH2O using the Packard Filtermate Harvester. Filtration plates were then air dried, supplemented with 40 μl of Microscint 20 scintillation fluid and the ^33P-labeled reaction products were quantified using the Packard TopCount scintillation counter.
(§4) Compounds were tested in three-fold serial dilutions and inhibitor concentrations to achieve 50% inhibition of enzyme activity (i.e., IC50) were derived from dose-reponse curves using SAS software (SAS Institute, Cary N.C.). A non-linear regression analysis based on the Hill equation was applied to the percent inhibition versus concentration data. In all cases, compound concentrations were verified by HPLC.

In a further assay the target is T2, human IKKα (Homo sapiens, UniProt O15111).
T2 construct: FLAG (N)
T2 sequence (O15111 1-745): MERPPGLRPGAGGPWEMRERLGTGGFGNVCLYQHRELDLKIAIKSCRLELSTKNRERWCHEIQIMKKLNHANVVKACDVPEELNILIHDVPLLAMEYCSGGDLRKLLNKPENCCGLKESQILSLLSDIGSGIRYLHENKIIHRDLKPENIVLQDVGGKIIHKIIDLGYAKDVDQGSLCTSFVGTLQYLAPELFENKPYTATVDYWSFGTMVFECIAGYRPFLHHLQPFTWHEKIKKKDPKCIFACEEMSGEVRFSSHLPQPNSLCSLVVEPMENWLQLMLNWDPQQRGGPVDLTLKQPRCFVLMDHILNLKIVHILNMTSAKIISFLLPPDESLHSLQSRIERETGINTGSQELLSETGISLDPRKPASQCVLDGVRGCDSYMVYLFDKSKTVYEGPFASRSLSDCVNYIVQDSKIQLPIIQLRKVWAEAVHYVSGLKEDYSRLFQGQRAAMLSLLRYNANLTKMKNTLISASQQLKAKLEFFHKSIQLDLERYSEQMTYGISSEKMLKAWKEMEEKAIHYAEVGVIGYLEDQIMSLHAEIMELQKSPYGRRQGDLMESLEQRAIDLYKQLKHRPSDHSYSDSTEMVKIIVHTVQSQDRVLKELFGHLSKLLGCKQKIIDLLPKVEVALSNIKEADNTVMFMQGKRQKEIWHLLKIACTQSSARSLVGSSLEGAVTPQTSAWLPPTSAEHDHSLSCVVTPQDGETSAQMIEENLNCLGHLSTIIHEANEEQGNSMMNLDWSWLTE
In words: IKKα kinase inhibition assay (phosphorylation of IκBα substrate, 33P-ATP). Particulars: flag-tagged human IKKα 3.6 μg/ml, GST-IκBα (1-54) 245 μg/ml, 250 nM ATP, 1 hour at 25° C. Type of assay: biochemical. Here is the method: as §1, §2, §3, §4

As for `CCCc1cc(N2CCC(NCC(O)c3ccc(-c4nccs4)cc3)CC2)nc2sc(C(N)=O)c(N)c12` (stereo not drawn) [3-Amino-6-{4-[2-hydroxy-2-(4-thiazol-2-yl-phenyl)-ethylamino]-piperidin-1-yl}-4-propyl-thieno[2,3-b]pyridine-2-carboxylic acid amide], the IC50 on human IKKβ was < 1 µM; against human IKKα, ≤ 10 µM.

`CNC1CCN(c2cc(C(F)(F)F)c3c(N)c(C(N)=O)sc3n2)CC1` [3-Amino-6-(4-methylamino-piperidin-1-yl)-4-trifluoromethyl-thieno[2,3-b]pyridine-2-carboxylic acid amide]: the IC50 at human IKKβ is < 1 µM; against human IKKα, ≤ 10 µM.

Take `NC(=O)c1sc2nc(N3CCC(NCC(O)c4ccc(-c5cnccn5)cc4)CC3)cc(C(F)(F)F)c2c1N` (stereo not drawn) [3-Amino-6-{4-[2-hydroxy-2-(4-pyrazin-2-yl-phenyl)-ethylamino]-piperidin-1-yl}-4-trifluoromethyl-thieno[2,3-b]pyridine-2-carboxylic acid amide]: the results for the IC50 against human IKKβ and on human IKKα were < 1 µM and ≤ 10 µM, respectively.

As to `CNC1CCN(c2cc(OCC(F)(F)F)c3c(N)c(C(N)=O)sc3n2)CC1` [3-Amino-6-(4-methylamino-piperidin-1-yl)-4-(2,2,2-trifluoro-ethoxy)-thieno[2,3-b]pyridine-2-carboxylic acid amide], the results for the IC50 against human IKKβ and against human IKKα were < 1 µM and ≤ 10 µM, respectively.

In the case of `CNC1CCN(c2cc(C(F)F)c3c(N)c(C(N)=O)sc3n2)CC1` [3-Amino-4-difluoromethyl-6-(4-methylamino-piperidin-1-yl)-thieno[2,3-b]pyridine-2-carboxylic acid amide], the results for the IC50 against human IKKβ and at human IKKα were < 1 µM and ≤ 10 µM, respectively.

For `NC(=O)c1sc2nc(N3CCC(N)CC3)cc(C(=O)Nc3ccncc3)c2c1N` [3-Amino-6-(4-amino-piperidin-1-yl)-thieno[2,3-b]pyridine-2,4-dicarboxylic acid 2-amide 4-pyridin-4-ylamide], the IC50 against human IKKβ is < 1 µM; on human IKKα it was ≤ 10 µM.

`Cc1cc(N2CCC(N)CC2)nc2sc(C(N)=O)c(N)c12` [3-Amino-6-(4-amino-piperidin-1-yl)-4-methyl-thieno[2,3-b] pyridine-2-carboxylic acid amide]: the IC50 against human IKKβ is < 1 µM; on human IKKα it was ≤ 10 µM.

In the case of `CCCc1cc(N2CCC(NCC(=O)Nc3cccc4ccccc34)CC2)nc2sc(C(N)=O)c(N)c12` [3-Amino-6-{4-[(naphthalen-1-ylcarbamoylmethyl)-amino]-piperidin-1-yl}-4-propyl-thieno[2,3-b] pyridine-2-carboxylic acid amide], the IC50 was < 1 µM on human IKKβ and ≤ 10 µM against human IKKα.

`CCCc1cc(N2CCC(NC3CC3)CC2)nc2sc(C(N)=O)c(N)c12` [3-Amino-6-(4-cyclopropylamino-piperidin-1-yl)-4-propyl-thieno[2,3-b] pyridine-2-carboxylic acid amide]: the IC50 against human IKKβ is < 1 µM; at human IKKα it was ≤ 10 µM.

With `CCc1cc(N2CCC(N)CC2)nc2sc(C(N)=O)c(N)c12` [3-Amino-6-(4-amino-piperidin-1-yl)-4-ethyl-thieno[2,3-b] pyridine-2-carboxylic acid amide], the IC50 at human IKKβ is < 1 µM; against human IKKα, ≤ 10 µM.

Consider `CCCc1cc(N2CCC(N)(C#N)CC2)nc2sc(C(N)=O)c(N)c12` [3-Amino-6-(4-amino-4-cyano-piperidin-1-yl)-4-propyl-thieno[2,3-b] pyridine-2-carboxylic acid amide], for which, on human IKKα, the IC50 was ≤ 10 µM.

For `NC(=O)c1sc2nc(N3CCC(N)CC3)cc(-c3ccc([N+](=O)[O-])cc3)c2c1N` [3-Amino-6-(4-amino-piperidin-1-yl)-4-(4-nitro-phenyl)-thieno[2,3-b]pyridine-2-carboxylic acid amide], the IC50 at human IKKα is ≤ 10 µM.

As to `Cc1cc(/C=C/c2ccc(Cl)cc2)c2c(N)c(C(N)=O)sc2n1` [3-Amino-4-[(E)-2-(4-chloro-phenyl)-vinyl]-6-methyl-thieno[2,3-b]pyridine-2-carboxylic acid amide], on human IKKα, the IC50 is ≤ 10 µM.

For the compound `Cc1cc(-c2ccc([N+](=O)[O-])cc2)c2c(N)c(C(N)=O)sc2n1` [3-Amino-6-methyl-4-(4-nitro-phenyl)-thieno[2,3-b]pyridine-2-carboxylic acid amide], on human IKKα, the IC50 is ≤ 10 µM.

`CSc1cc(N2CCC(N)CC2)nc2sc(C(N)=O)c(N)c12` [3-Amino-6-(4-amino-piperidin-1-yl)-4-methylsulfanyl-thieno[2,3-b]pyridine-2-carboxylic acid amide]: at human IKKα, the IC50 is ≤ 10 µM.

Take `Cc1cc(-c2ccco2)c2c(N)c(C(N)=O)sc2n1` [3-Amino-4-furan-2-yl-6-methyl-thieno[2,3-b]pyridine-2-carboxylic acid amide]: on human IKKα, the IC50 is ≤ 10 µM.

On to `CCCc1cc(N2CCC(NCC(O)c3ccc(NS(C)(=O)=O)cc3)CC2)nc2sc(C(N)=O)c(N)c12` (stereo not drawn) [3-Amino-6-{4-[2-hydroxy-2-(4-methanesulfonylamino-phenyl)-ethylamino]-piperidin-1-yl}-4-propyl-thieno[2,3-b] pyridine-2-carboxylic acid amide], for which, at human IKKα, the IC50 was ≤ 10 µM.

In the case of `CCCc1cc(N2CCC(NC)CC2)nc2sc(C(N)=O)c(N)c12` [3-Amino-6-(4-methylamino-piperidin-1-yl)-4-propyl-thieno[2,3-b] pyridine-2-carboxylic acid amide], the IC50 against human IKKα is ≤ 10 µM.

Take `CCCc1cc(N2CCC(N)CC2)nc2sc(C(N)=O)c(N)c12` [3-Amino-6-(4-amino-piperidin-1-yl)-4-propyl-thieno[2,3-b] pyridine-2-carboxylic acid amide]: the IC50 against human IKKα is ≤ 10 µM.

With `Cc1cc(-c2ccc(S(C)(=O)=O)cc2)c2c(N)c(C(N)=O)sc2n1` [3-Amino-4-(4-methanesulfonyl-phenyl)-6-methyl-thieno[2,3-b]pyridine-2-carboxylic acid amide], on human IKKα, the IC50 is ≤ 10 µM.

For the compound `Cc1cc(/C=C/c2ccc(F)cc2)c2c(N)c(C(N)=O)sc2n1` [3-Amino-4-[(E)-2-(4-fluoro-phenyl)-vinyl]-6-methyl-thieno[2,3-b]pyridine-2-carboxylic acid amide], at human IKKα, the IC50 was ≤ 10 µM.

On to `Cc1cc(/C=C/c2ccccc2)c2c(N)c(C(N)=O)sc2n1` [3-Amino-6-methyl-4-((E)-styryl)-thieno[2,3-b]pyridine-2-carboxylic acid amide], for which the IC50 against human IKKα was ≤ 10 µM.

As to `CC(C)Oc1ccnc2sc(C(N)=O)c(N)c12` [3-Amino-4-isopropoxy-thieno[2,3-b]pyridine-2-carboxylic acid amide], the IC50 against human IKKα was ≤ 10 µM.
